PMC12528448, “Resistance to CDK7 inhibitors directed by acquired mutation of a conserved residue in cancer cells” (The EMBO Journal, 2025)
Where “and” joins values, the source holds several entries; their conditions need not be identical. Identical values can stand only once.

Key:
22Rv1 cells = assay: Growth assay (SRB), 22Rv1; assay type: cell-based, human; details: 22Rv1, 4 days, biological reps
Experimental: (§1) To determine the IC50 of drug treatments on growth, cells were seeded in 96-well culture plates. Two days after seeding, the cells were treated with increasing concentrations of drugs and incubated for 4 days. Cell number was determined using the SRB assay (Skehan et al, [1990]), and IC50 values were calculated using non-linear regression curve fitting in GraphPad Prism v10. For all other growth experiments, cells were seeded into 96-well plates, and appropriate drugs were added 2 days after seeding. Cells were then incubated in an IncuCyte Zoom live-cell imager, with cell confluency measured every 6 h. Cell doubling times were determined by non-linear curve fitting (exponential growth equation) in GraphPad Prism v10.

CDK7-WT = target: T1, CDK7-WT (Homo sapiens, UniProt P50613); assay: NanoBRET Target Engagement assay, K-10 tracer displacement in HEK293 cells; assay type: binding; details: CDK7 WT, replicates N1-N3
T1 construct: expressed in transfected cells; host or cells: HEK293
T1 sequence (P50613 whole entry): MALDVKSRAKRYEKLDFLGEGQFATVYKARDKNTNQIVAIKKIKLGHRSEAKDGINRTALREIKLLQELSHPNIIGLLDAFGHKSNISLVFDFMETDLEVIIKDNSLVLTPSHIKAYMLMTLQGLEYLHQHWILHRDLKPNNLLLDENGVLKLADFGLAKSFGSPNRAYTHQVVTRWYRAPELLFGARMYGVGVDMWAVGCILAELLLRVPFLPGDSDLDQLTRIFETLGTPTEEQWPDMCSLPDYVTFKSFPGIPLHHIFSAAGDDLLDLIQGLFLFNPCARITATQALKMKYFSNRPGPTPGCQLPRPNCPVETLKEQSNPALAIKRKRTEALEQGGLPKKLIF
Experimental: (§2) Energy transfer between the NanoLuc fusion protein and a cell-permeable fluorescent energy transfer probe facilitates quantitative determination of target engagement in live cells (Wells et al, [2020]). Assays were conducted according to this previous report, using the optimal CDK7 probe, K-10, at a concentration of 0.5 µM.
(§3) CDK4, CDK6 and CDK7 and the respective mutant sequences, obtained as synthesised DNA fragments from IDT (Leuven), were cloned by HiFi DNA assembly (New England Biolabs) into the pNLF1-N NanoLuc protein fusion vector (Promega). HEK293 cells, transiently transfected with NanoLuc-CDK fusion constructs, were used for activity determination, utilising the NanoBRET Target Engagement Intracellular Kinase Assay. A CCND1 expression construct was co-transfected with the NanoLuc-CDK4 and NanoLuc-CDK6 fusion constructs. The recommended cell-permeable energy transfer probe, K-10, was used to assess target engagement, as detailed in the manufacturer’s methods (Promega). […] The BRET ratio (mBU) was calculated as acceptor emission (590–610 nm)/donor emission (410–490 nm) × 1000. The mBU values were plotted against the energy probe concentrations to determine maximal binding (Bmax) and Kd values. BRET signal competition by CDK inhibitors was used to determine compound binding to WT and mutant CDKs. […] Inhibitor binding was determined using a fourfold dilution series. mBU values were plotted against test compound concentrations in the presence of K10 tracer. EC50 values were determined using nonlinear regression curve-fitting. Test compound occupancy (%) was calculated using the equation [1 − (x − z)/(y − z)] × 100, where x = mBU in the presence of the test compound and K-10 tracer, y = mBU with K-10 tracer and vehicle control, and z = mBU in the absence of the K-10 tracer or test compound (Wells et al, [2020]).

CDK7-D97N = target: T2, CDK7-D97N (Homo sapiens, UniProt P50613, D97N); assay: as above; assay type: binding; details: CDK7 D97N, replicates N1-N3
T2 construct: expressed in transfected cells; host or cells: HEK293
T2 sequence (P50613 whole entry D97N): as the sequence (P50613 whole entry) above, with D97N counted along it
Experimental: as §2, §3

MCF7-CDK7-D97N cells = assay: Growth assay (SRB), MCF7 CDK7-D97N knock-in; assay type: cell-based, human; details: 4 days; for % Growth: MCF7 CDK7 D99N, biological reps
Experimental: as §1
Alt-R^TM S.p. Cas9 nuclease V3, Alt-R CRISPR-Cas9 crRNA, TracrRNA and the donor templates were obtained from Integrated DNA Technologies. […] Cells were treated with 0.7 µM of Alt-R HDR Enhancer V2 to improve HRD efficiency. Sequences of the CRISPRs in the crRNA and the donor templates are shown in the Reagents and tools table. Donor templates were designed to include non-coding substitutions to aid genome DNA PCR for identifying knock-in events and to facilitate cloning; these substitutions are noted in the Reagents and tools table.

SMILES: CN(C)C/C=C/C(=O)Nc1ccc(C(=O)Nc2cccc(Nc3ncc(Cl)c(-c4c[nH]c5ccccc45)n3)c2)cc1 [THZ1]
- % Growth (22Rv1 cells; Log10 Conc. (nM) 0.09): 93.20% and 88.05%
- % Growth (22Rv1 cells; Log10 Conc. (nM) 0.69): 85.45% and 77.80%
- % Growth (22Rv1 cells; Log10 Conc. (nM) 1.29): 56.44% and 44.90%
- % Growth (22Rv1 cells; Log10 Conc. (nM) 1.89): 5.80% and -0.07%
- % Growth (22Rv1 cells; Log10 Conc. (nM) 2.49): -4.12% and -6.31%
- % Growth (22Rv1 cells; Log10 Conc. (nM) 3.10): -6.49% and -7.67%
- % Growth (22Rv1 cells; Log10 Conc. (nM) 3.70): -6.63% and -7.61%
- % Growth (22Rv1 cells; Log10 Conc. (nM) -0.52): 98.36% and 93.94%
- % Growth (22Rv1 cells; Log10 Conc. (nM) -1.12): 96.18% and 94.83%
- % Occupacy (CDK7-WT; Log10 Conc. (nM) 0.09): 16.74% and 4.33% and 5.86%
- % Occupacy (CDK7-WT; Log10 Conc. (nM) 0.69): 17.70% and 6.32% and 7.28%
- % Occupacy (CDK7-WT; Log10 Conc. (nM) 1.29): 29.22% and 3.65% and 10.56%
- % Occupacy (CDK7-WT; Log10 Conc. (nM) 1.89): 53.51% and 14.09% and 19.55%
- % Occupacy (CDK7-WT; Log10 Conc. (nM) 2.49): 85.19% and 65.85% and 67.10%
- % Occupacy (CDK7-WT; Log10 Conc. (nM) 3.10): 97.70% and 100.48% and 92.33%
- % Occupacy (CDK7-WT; Log10 Conc. (nM) 3.70): 102.14% and 100.08% and 100.97%
- % Occupacy (CDK7-WT; Log10 Conc. (nM) 4.30): 101.17% and 106.00% and 102.12%
- % Occupacy (CDK7-WT; Log10 Conc. (nM) -0.52): 21.00% and 8.28% and 9.27%
- % Occupacy (CDK7-WT; Log10 Conc. (nM) -1.12): 15.97% and 8.08% and 8.28%
- % Occupacy (CDK7-WT; Log10 Conc. (nM) -1.72): 12.78% and 7.38% and 8.51%
- % Occupacy (CDK7-D97N; Log10 Conc. (nM) 0.09): 9.16% and 2.67% and 0.07%
- % Occupacy (CDK7-D97N; Log10 Conc. (nM) 0.69): 13.92% and 3.61% and 4.36%
- % Occupacy (CDK7-D97N; Log10 Conc. (nM) 1.29): 29.03% and 9.81% and 4.02%
- % Occupacy (CDK7-D97N; Log10 Conc. (nM) 1.89): 74.11% and 30.96% and 26.31%
- % Occupacy (CDK7-D97N; Log10 Conc. (nM) 2.49): 95.10% and 79.08% and 80.38%
- % Occupacy (CDK7-D97N; Log10 Conc. (nM) 3.10): 97.98% and 96.38% and 96.98%
- % Occupacy (CDK7-D97N; Log10 Conc. (nM) 3.70): 98.68% and 99.58% and 99.12%
- % Occupacy (CDK7-D97N; Log10 Conc. (nM) 4.30): 99.99% and 100.77% and 101.05%
- % Occupacy (CDK7-D97N; Log10 Conc. (nM) -0.52): 6.83% and 2.53% and 1.19%
- % Occupacy (CDK7-D97N; Log10 Conc. (nM) -1.12): 11.58% and 4.35% and 1.55%
- % Occupacy (CDK7-D97N; Log10 Conc. (nM) -1.72): 7.10% and 3.74% and 2.78%
- IC50 (MCF7-CDK7-D97N cells; MCF7-CDK7-D97N, SRB): 68.7 nM
- % Growth (MCF7-CDK7-D97N cells; Log10 Conc. (nM) 0.09): 97.12% and 98.47% and 91.37%
- % Growth (MCF7-CDK7-D97N cells; Log10 Conc. (nM) 0.69): 86.82% and 92.10% and 89.13%
- % Growth (MCF7-CDK7-D97N cells; Log10 Conc. (nM) 1.29): 76.30% and 76.07% and 72.54%
- % Growth (MCF7-CDK7-D97N cells; Log10 Conc. (nM) 1.89): 35.33% and 47.81% and 46.77%
- % Growth (MCF7-CDK7-D97N cells; Log10 Conc. (nM) 2.49): -1.00% and 8.40% and 7.81%
- % Growth (MCF7-CDK7-D97N cells; Log10 Conc. (nM) -0.52): 99.89% and 102.56% and 100.45%
- % Growth (MCF7-CDK7-D97N cells; Log10 Conc. (nM) -1.12): 96.07% and 101.58% and 94.36%
